Consider three compounds from patent US7534769B2, “Compositions and methods for enhancing delivery of therapeutic agents to cells” (Canji, Inc., priority 1996, dated 2009).

Entries after “also recorded” stand apart in the source; their conditions may differ.

Data set [1] deals with bladder epithelium. The format is in vivo, rat.
Protocol: Nine female buffalo rats (Harlan Sprague Dawley) were anesthetized with isoflurane and received a single intravesical administration of a human recombinant adenovirus encoding the lacZ gene (rAd-βgal). […] The administered material was retained in the bladder for 45 minutes. The bladder were then flushed with PBS, and the animals were permitted to recover from the procedure. Two days after administration, rats were sacrificed, bladders were harvested, fixed, and whole organs were stained with an Xgal (5-Bromo-4-chloro-3-indolyl-β-D-galactoside) solution to evaluate reporter gene transfer. Xgal-stained tissues were then paraffin embedded, sectioned, and counter stained with hematoxylin and eosin.
After a 45 minute incubation, the bladders were flushed with PBS, and animals were permitted to recover from anesthesia.
Data set [2] concerns bladder, kidney and liver homogenates. Kind of data set: ACNRB transgene expression by RT-PCR after intravesical administration. The format is in vivo, mouse. The procedure: After the virus was retained in the bladder for 45 minutes, the animals were permitted to recover and void. […] Following amplification (30 cycles) RT-PCR products were separated on a 10% polyacrylamide gel, stained with ethidium bromide, and photographed. […] Untreated samples and bladder samples without the reverse transcriptase (RT) provided controls for contaminating DNA.
The instilled material was retained in the bladder for approximately 45 minutes, and animals were permitted to recover from the procedure. Mice were sacrificed 1, 2, 3, 4, 5, 6, 7, and 14 days after administration (N=4/time) for analysis. Bladders, livers, and kidneys were harvested and snap frozen in liquid nitrogen for subsequent analysis.
After the virus was retained in the bladder for 45 minutes, the animals were permitted to recover. […] Transgene expression was determined using RT-PCR. Tissues were rinsed in RNAse free water, homogenized, digested in Tri-Reagent (Molecular Research Center), and total cellular RNA extracted. […] RT-PCR was performed in the Perkin Elmer 9600 GeneAmp PCR System. Cycling conditions were 10 min at 65° C., 8 min at 50° C., 5 min at 95° C. 32 cycles of PCR were performed, each cycle consisting of 30 sec at 94° C., 30 sec at 58° C., and 30 sec at 72° C. The 32nd cycle included a 10 min elongation step at 72° C. to ensure full extension of incomplete DNA fragments.

The next data set has as its system bladder tissue. Kind of data set: Cystitis evaluation of formulations in mice, bladder histopathology. The conditions noted are these: 80 μL intravesical, 7-day interval; 7 mM Big CHAP, 0.05 mM TRITON X-100 or 22% ethanol.
A short description of data set [3]: Solubility and dissolution behaviour. The format is physicochemical.
For data set [4], the system named is bladder. Kind of data set: Gene transfer activity of Syn3 in Big CHAP or Tween-80, β-galactosidase expression in bladder. It is filed as in vivo, rat. The note with it: for gene transfer activity / β-gal expression: 0.5 mg/ml in 7.8 mM Big CHAP. The procedure: (§1) Following removal of virus and flushing of the bladder, the animals were allowed to recover. After 48 hours the animals were sacrificed, their bladders fixed, and stained for β-gal expression. Following photographic recording, bladders were embedded in paraffin for sectioning and histological examination.

The subject of another data set is bladder urothelium. In words: Histological examination of Syn3 treated bladders (infiltrates). The note with it: for inflammation / infiltration at lower concentration of Syn3: 0.25 mg/ml compared with 0.5 mg/ml, decreasing concentrations in Big CHAP or Tween 80. It is filed as in vivo, rat. As to the method: as §1
Bladders from animals treated with Syn3-rAd (β-Gal) were prepared for histological examination to determine the levels of viral infection, as well as the degree of viral penetration into the bladder urothelium.

The nature of data set [5]: Stability of Syn3 in solution. It is filed as physicochemical. As to the method: However, if left at room temperature at this high concentration (100 mg/ml), it will solidify within 24 hours.
For data set [6], the system named is bladder. Kind of data set: Gene transfer activity of water-soluble Syn3 analogs in vivo, whole organ Xgal staining. The conditions noted are these: summary, Concentration 1 mg/ml. On the set-up: species or system rat. As to the method:
A concentration of 1 mg/ml was chosen for initial testing of both compounds.
The solution of A-TMA was prepared by dissoluting 10 mg of A-TMA into 10 ml Dulbecco's PBS. Glycerol was added to provide a final concentration of 10 mg/ml. All solutions were sterile filtered prior to use (0.2 μm Acrodisc syring filter). The virus (BGCG 70AAB) was diluted 1:10 into either this A-TMA solution, or into Dulbecco's PBS-glycerol prior to administration.
Ten mg of A-HCl was dissoluted into this buffer and sterile filtered prior to use (0.2 μm Acrodisc suring filter). The virus (BGCG 70AAB) was diluted 1:10 into this solution prior to administration. For comparison, the virus diluted into this buffer without A-HCl was also tested.
Female HSD rats were anesthetized using isofluorane. The rats were transuretherally catheterized into the bladder using PE50 tubing lubricated with K-Y jelly. A tie-off was installed on the external urethra to prevent back leakage. Urine, if any, was removed and the bladder was flushed with 0.5 ml PBS and emptied. rAd was diluted to the desired concentration (1:10) and instilled for 45 minutes. The dosing material was removed, noting the return volume. The bladder was flushed with 0.5 ml PBS and emptied. The tie-off and catheter were removed, and the animals were allowed to recover in cages.
After 48 hours, the animals were sacrificed and their bladders inflation fixed with 0.5 ml fixative for 1 hour. The bladders were then rinsed overnight and whole organ Xgal staining was conducted.

Data set [7] concerns bladder epithelium. In words: rAd-βgal gene transfer to bladder epithelium in detergent formulations, Xgal staining score and gross pathology. The conditions noted are these: detergents at their critical micellization concentration. The procedure:
rAd-βgal was formulated in different detergents at their critical micellization concentration to evaluate efficiency of gene transfer to the bladder epithelium. Female rats (about 200 g b/w, Harlan Sprague Dawley) were anesthetized with isoflurane and received a single intravesical administration of rAd-βgal (1×10^11 PN/ml) in different detergent formulations (see Table I). Before instillation, bladders were flushed with PBS and then emptied. rAd-βgal was then instilled in a volume of 0.5 ml. The instilled solution was retained in the bladder for 45 minutes. The bladders were then flushed with PBS, and the animals were permitted to recover from the procedure. 48 hours after administration, the rats were sacrificed, the bladders harvested, and fixed in formalin. After fixation, the bladders were opened longitudinally so that the urothelium was exposed to the chromogen (Xgal), that is converted to a blue color, if reporter gene (β-galactosidase) expression is present. The luminal epithelial surface of the whole bladder was photographed an blue staining scored: + (minimal staining), ++ (moderate staining), +++ intense staining covering the whole bladder epithelial surface.
Briefly, in anaesthetized female rats rAd-βgal (1×10^11 PN/ml) was administered into the bladder via an intravesical catheter. rAd-βgal was formulated in different concentrations of Big CHAP (CALBIOCHEM®). A volume of 0.5 ml was injected and remained instilled in the bladder for 45 minutes. The animals were sacrificed 48 hours later, the bladder fixed in 4% formalin/glutaraldehyde, opened longitudinally, and the β-galactosidase enzyme activity measured using Xgal substrate. The intensity of blue staining correlates with the βgal-transgene expression.
Effects of higher recombinant adenovirus concentrations were also tested. Briefly, in anaesthetized female rats different concentrations of rAd-βgal, formulated in 7 mM Big CHAP (CALBIOCHEM®) were administered into the bladder via an intravesical catheter. The animals were sacrificed 48 hours later, the bladder fixed in 4% formalin/glutaraldehyde, opened longitudinally, and Xgal stained.

Protocol for bladder tissue: The formulations were administered intravesically in a volume of 80 μL, and animals were observed over a 7-day interval. After sacrifice, bladders were paraffin-embedded, sectioned, and stained with hematoxylin and eosin for pathologic evaluation.

Turning to `CCO` [ethanol], in the data set with bladder epithelium [1] (ethanol added to the adenovirus formulation), the “β-galactosidase expression of the transitional bladder epithelium (histologic evaluation)” value is on record as “increased β-galactosidase expression”. In the data set on bladder epithelium [1] (rAd-βgal 1.7×10^11 PN/mL diluted in 30% (v/v) ethanol, intravesical 45 min, 2 days after administration), the “β-galactosidase expression in the luminal epithelial surface” value is listed as “greatly enhanced”. For the same compound, the “ACNRB expression in bladder (RT-PCR)” value is recorded as “enhanced expression” in [2] (ACNRB 4×10^10 PN/mL in 22% (v/v) ethanol or 3 mM Big CHAP versus VPBS, 48 hours) and “Increased ACNRB expression” in data set [2] (ACNRB in 30% (v/v) ethanol compared to VPBS, 2 days). Also, in the data set with bladder tissue, the “macrophage infiltration into the bladder tissue / cystitis” value is reported as “significant cystitis”.

`CC(CCC(=O)NCCCN(CCCNC(=O)C(O)C(O)C(OC1OC(CO)C(O)C(O)C1O)C(O)CO)C(=O)CCC(C)C1CCC2C3C(O)CC4CC(O)CCC4(C)C3CC(O)C12C)C1CCC2C3C(O)CC4CC(O)CCC4(C)C3CC(O)C12C` (stereo not drawn) [Syn3]: the “dissolution in Tween 80” value in data set [3] (1 mg/ml in 0.1% Tween 80) was “clear solution; also recorded: readily solubilized”. In addition, the “behaviour on dissolution in water” value in [3] (1 mg/ml in water) is “appeared to form vesicles”; in [3] (10 mg/ml in water) it was “formed a gel”. In addition, the “amount of Syn3 that dissolutes” value in [3] (into 15 mM Big CHAP) is on record as “Up to 5 mg/ml”. For the same compound, the “time to completely dissolute” value in data set [3] (into 10% Tween-80) is on record as “several hours”. The gene transfer activity entry with bladder [4] (0.25 mg/ml in 3.9 mM Big CHAP) is recorded as “Very high levels of gene transfer”; in the data set on bladder [4] (0.25 mg/ml in 3.9 mM Big CHAP, listed as I3A), “high levels of gene transfer activity”; in the data set on bladder [4] (0.5 mg/ml in 0.05% Tween-80), “more regions lacking β-galactosidase expression; also recorded: slightly reduced”; in the data set on bladder [4] (1 mg/ml in 0.1% Tween 80), “found to enhance gene transfer; also recorded: can enhance gene transfer; also recorded: very high levels of gene transfer; also recorded: consistently high levels of gene transfer; also recorded: effective in enhancing gene transfer; also recorded: Approximately equal levels of gene transfer”; in the data set with bladder [4] (1 mg/ml in 0.1% Tween 80, listed as I3A), “very high levels of gene transfer; also recorded: High levels of β-galactosidase activity”; with bladder [6] it was “++++”. For the same compound, the “gene transfer activity / β-gal expression” value was “greatly enhance gene transfer and β-gal expression; also recorded: very high levels of gene transfer activity; also recorded: highest levels of β-galactosidase expression; also recorded: extremely high” in the data set with bladder [4]; “High levels of gene transfer” with bladder [4] (listed as I3A). For the same compound, in the data set on bladder [4] (1 mg/ml in 0.4% Tween-80), the gene transfer entry is reported as “almost no gene transfer”. For the same compound, the “gene transfer, 0.5 mg/ml in 7.8 mM Big CHAP compared with 1 mg/ml in 0.1% Tween-80” value with bladder [4] (rat, in vivo) was “approximately equal levels of gene transfer enhancement; also recorded: comparable”. Moreover, the “inflammation / infiltration at lower concentration of Syn3” value is reported as “proportionally lower infiltration” with bladder urothelium and “less inflammation” with bladder urothelium (listed as I3A). For the same compound, in the data set with bladder urothelium (0.5 mg/ml in 7.8 mM Big CHAP with rAd), the “recruitment of infiltrates to the bladder” value was “massive recruitment of infiltrates to the bladder”. The infiltration result in the data set on bladder urothelium (Syn3 administered alone (no virus)) is “a significant amount of infiltration; also recorded: significant induction of infiltrates”. Besides, the “β-Gal expression on reducing the concentration of Syn3 (histology)” value with bladder urothelium (in either detergent) is on record as “concomitant reduction in β-Gal expression”. Besides, in [5] (0.25 mg/ml or 0.5 mg/ml in Big CHAP, room temperature), the “period over which gene transfer activity is retained” value is recorded as “at least 30 days”. Further, the period of stability result is “at least 30 days” in [5] (1 mg/ml in 0.1% Tween-80, longest period tested) and “at least one week” in data set [5] (100 mg/ml in 10% Tween-80, 4° C.). Further, the time to solidify in data set [5] (100 mg/ml in 10% Tween-80, room temperature) is at most 24 h. In addition, the “stability (in words)” value in data set [5] (dissoluted into Big CHAP detergent) is given as “very stable”.

On to Triton X-100 [reference compound], for which, in the data set on bladder epithelium [7], the “gene transfer to the bladder epithelium (Table I)” value is “enhanced gene transfer dramatically”. Besides, the “macrophage infiltration into the bladder tissue / cystitis” value in the data set on bladder tissue was “slight to mild”.
